These molecules were tested on VZV (strain CaQu) (assay: Anti-VZV activity assay (plaque reduction in HEF cells)). Conditions: Human alphaherpesvirus 3, 3 to 4 days culture, plaque count, read-out: EC50 (concentration to inhibit 50% of the plaques).
Format: cell-based, varicella zoster virus
Procedure: This assay was carried out in accordance with the method described by Shigeta S. (The Journal of Infectious Diseases, 147, 3, 576-584 (1983). Illustratively, HEF cells were seeded a 96 well microtiter plate at 10,000 cells per well using a propagation medium and cultured at 37° C. for 4 days in an atmosphere of 5% CO2 until monolayers were formed. After washing the cells with a maintaining medium, the cells were inoculated with 100 μl/well of VZV (strain CaQu) which had been diluted to 20 to 30 pfu/100 μl with the maintaining medium. The plate was centrifuged at 2,000 rpm for 20 minutes at room temperature and then incubated at 37° C. for 3 hours in an atmosphere of 5% CO2 to infect with VZV. After washing three times with 100 μl/well of the maintaining medium, 100 μl of each test drug diluted to an appropriate concentration with the maintaining medium was added to each well. After culturing the cells at 37° C. for 3 to 4 days in an atmosphere of 5% CO2, the cells were fixed with 100 μl/well of 10% formalin/PBS for 2 to 3 hours. After discarding the fixing solution and culture supernatant and subsequently washing the plate with water, a staining solution (0.025% Crystal Violet) was added in 50 μl/well to carry out 2 to 3 minutes for staining, and then the plate was washed with water and dried at 37° C. The HEF cells infected with VZV cause cell death, and plaques comprising dead cells are formed in the monolayer HEF cells. The number of plaques was counted under a microscope, and EC50 value of the test drug was calculated as a concentration to inhibit 50% of the plaques.
With `Nc1nc2c(ncn2COCCO)c(=O)[nH]1` [ACV, Acyclovir, reference compound] the EC50 was 4300 nM. `Nc1nc(-c2ccc(NC(=O)CN(C(=O)c3ccncc3)c3ccc4scnc4c3)cc2)cs1` [Example 108] gave an EC50 of 25 nM. For `Nc1nc(-c2ccc(NC(=O)CN(C(=O)C3CCOCC3)c3ccc4scnc4c3)cc2)cs1` [Example 110], the EC50 was 49 nM. `Nc1nc(-c2ccc(NC(=O)CN(C(=O)C3CCSCC3)c3ccc4scnc4c3)cc2)cs1` [Example 111] gave an EC50 of 26 nM. `Nc1nc(-c2ccc(NC(=O)CN(C(=O)C3CCSc4ccccc43)c3ccc4scnc4c3)cc2)cs1` (stereo not shown) [Example 113] gave an EC50 of 40 nM. Molecule `Nc1nc(-c2ccc(NC(=O)CN(C(=O)C3CCCCC3)c3ccc4ncsc4c3)cc2)cs1` [Example 114] has an EC50 of 70 nM. With `Nc1nc(-c2ccc(NC(=O)CN(C(=O)C3CC=C(F)CC3)c3ccc4scnc4c3)cc2)cs1` (stereo not shown) [Example 115] the EC50 was 28 nM. For `Nc1nc(-c2ccc(NC(=O)CN(C(=O)C3CCC(F)(F)CC3)c3ccc4scnc4c3)cc2)cs1` [Example 116], the EC50 was 33 nM. Work on `Nc1nc(-c2ccc(NC(=O)CN(C(=O)c3ccc(F)nc3)c3ccc4scnc4c3)cc2)cs1` [Example 117] yielded an EC50 of 65 nM. `Nc1nc(-c2ccc(NC(=O)CN(C(=O)c3ccncn3)c3ccc4scnc4c3)cc2)cs1` [Example 118] was tested, and the EC50 was 59 nM.

From patent US6949543B2, “Amide derivative” (Yamanouchi Pharmaceutical Co., Ltd., priority 2000, dated 2005)
